# The source made the active and inactive calls.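 The calls were made as follows: active = viability below 70% at one or more concentrations in every replicate; inactive = viability above 70% at all doses, or replicates disagree.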
# Test system: Vero E6 viability, CellTiter-Glo luminescence, 96 h
# Test: Vero E6 cell cytotoxicity, SAR follow-up, cytotoxicity control for West Nile virus antiviral project, synthesized analogs, extended characterization 2 (AID 623930)
# Conditions: not given
row,SMILES,CC50 [µM]
1,O=C(CSc1nc2ccccc2c(=O)n1-c1c(Cl)cccc1Cl)Nc1nc(-c2ccccc2)cs1,52.6
2,O=C(CSc1nc2c(F)cccc2c(=O)n1-c1cc(Cl)cc(Cl)c1)Nc1ccc2c(c1)CCC2,77
3,O=C(CSc1nc2ccccc2c(=O)n1-c1cc(F)cc(F)c1)Nc1nc(-c2ccccc2)cs1,82.9
4,O=C(CSc1nc2c(F)cccc2c(=O)n1-c1ccc(Cl)c(Cl)c1)Nc1ccc2c(c1)CCC2,34.5
5,Cc1cc(-n2c(SCC(=O)Nc3nc(-c4ccccc4)cs3)nc3ccccc3c2=O)ccc1F,87.8
6,O=C(CSc1nc2c(Cl)cccc2c(=O)n1-c1cc(Cl)cc(Cl)c1)Nc1ccc2c(c1)CCC2,72.2

# Test system: not listed separately
# Test: as above
# Conditions: Vero E6 viability, CellTiter-Glo luminescence, 96 h; at 100 µM (top of the series)
row,SMILES,viability
1,N#Cc1ccc(-n2c(SCC(=O)Nc3nc(-c4ccccc4)cs3)nc3ccccc3c2=O)cc1F,78.4% (inactive)
2,O=C(CSc1nc2cccc(F)c2c(=O)n1-c1ccc(Cl)c(Cl)c1)Nc1ccc2c(c1)CCC2,71.9% (inactive)
3,O=C(CSc1nc2ccccc2c(=O)n1-c1c(Cl)cccc1Cl)Nc1ccc2c(c1)CCC2,74.6% (inactive)
4,O=C(CSc1nc2ccccc2c(=O)n1-c1ccc(Cl)c(Cl)c1)Nc1ccc2c(c1)CCC2,75.2% (inactive)
5,O=C(CSc1nc2c(F)cccc2c(=O)n1-c1cc(Cl)cc(Cl)c1)Nc1nc(-c2ccccc2)cs1,76% (inactive)
6,O=C(CSc1nc2c(F)cccc2c(=O)n1-c1ccc(Cl)c(Cl)c1)Nc1nc(-c2ccccc2)cs1,73.3% (inactive)
7,O=C(CSc1nc2ccccc2c(=O)n1-c1ccc(Cl)c(F)c1)c1nc(-c2ccccc2)cs1,72% (inactive)
